US10227323B2, “Glucosylceramide synthase inhibitors for the treatment of diseases” (BIOMARIN PHARMACEUTICAL INC., priority 2013, dated 2019)

target: T1, GCS (Canis lupus familiaris, UniProt A0A8I3MXG6); assay: Assay 1: GCS Enzymatic Assay (MDCK cell lysate, C6-NBD-Ceramide, LC/MS); type: biochemical, canine; settings: Table 2; data without asterisk; read-out: IC50 (nM) generated from Assay 1
T1 sequence (A0A8I3MXG6 1-394): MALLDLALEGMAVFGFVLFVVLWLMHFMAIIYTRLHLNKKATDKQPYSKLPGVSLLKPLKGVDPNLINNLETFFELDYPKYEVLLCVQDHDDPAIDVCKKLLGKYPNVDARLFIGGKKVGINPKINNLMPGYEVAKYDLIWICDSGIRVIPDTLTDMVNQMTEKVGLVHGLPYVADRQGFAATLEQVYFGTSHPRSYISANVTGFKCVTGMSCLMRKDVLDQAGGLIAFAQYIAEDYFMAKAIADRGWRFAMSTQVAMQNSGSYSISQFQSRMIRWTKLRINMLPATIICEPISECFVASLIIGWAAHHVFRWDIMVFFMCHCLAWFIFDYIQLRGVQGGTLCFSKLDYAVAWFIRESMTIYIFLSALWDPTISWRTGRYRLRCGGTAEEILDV
Procedure, shortened: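 LC/MS/MS measurement of glucosylceramide and NBD-ceramide after a 1 h, 37 °C reaction with 100 μM UDP-glucose and 10 μM C6-NBD-ceramide gave IC50s or percent inhibition.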

SMILES	IC50
Cc1nn(C)c2ccc(-c3ccc(C(=O)C(=O)N[C@H](CN4CCCC4)[C@H](O)c4cc(F)c5c(c4)OCCO5)cc3)cc12 [Example 322, 2-(4-(1,3-dimethyl-1H-indazol-5-yl)phenyl)-N-((1R,2R)-1-(8-fluoro-2,3-dihydrobenzo[b][1,4]dioxin-6-yl)-1-hydroxy-3-(pyrrolidin-1-yl)propan-2-yl)-2-oxoacetamide]	< 50 nM
CC(C)n1ccc2cc(C(=O)C(=O)N[C@H](CN3CCCC3)[C@H](O)c3cc(F)c4c(c3)OCCO4)ccc21 [Example 323, N-((1R,2R)-1-(8-fluoro-2,3-dihydrobenzo[b][1,4]dioxin-6-yl)-1-hydroxy-3-(pyrrolidin-1-yl)propan-2-yl)-2-(1-isopropyl-1H-indo1-5-yl)-2-oxoacetamide]	< 50 nM
CC(C)n1ccc2cc(C(=O)C(=O)N[C@H](CN3CCCC3)[C@H](O)c3ccc(OC4CC4)c(Cl)c3)ccc21 [Example 324, N-((1R,2R)-1-(3-chloro-4-cyclopropoxyphenyl)-1-hydroxy-3-(pyrrolidin-1-yl)propan-2-yl)-2-(1-isopropyl-1H-indo1-5-yl)-2-oxoacetamide]	< 50 nM
O=C(N[C@H](CN1CCCC1)[C@H](O)c1cc(F)c2c(c1)OCCO2)C(=O)c1ccc(N2CCOCC2)cc1 [Example 325, N-((1R,2R)-1-(8-fluoro-2,3-dihydrobenzo[b][1,4]dioxin-6-yl)-1-hydroxy-3-(pyrrolidin-1-yl)propan-2-yl)-2-(4-morpholinophenyl)-2-oxoacetamide]	< 50 nM
O=C(N[C@@H](Cc1ccc(OC2CC2)c(Cl)c1)CN1CCCC1)C(=O)c1ccc(-c2ccc(F)cc2)cc1 [Example 326, (S)-N-(1-(3-chloro-4-cyclopropoxyphenyl)-3-(pyrrolidin-1-yl)propan-2-yl)-2-(4′-fluoro-[1,1′-biphenyl]-4-yl)-2-oxoacetamide]	50 to 5000 nM
O=C(N[C@H](CN1CCC1)[C@H](O)c1ccc(OC2CC2)c(Cl)c1)C(=O)c1ccc(N2CCCC2)cc1 [Example 327, N-((1R,2R)-3-(azetidin-1-yl)-1-(3-chloro-4-cyclopropoxyphenyl)-1-hydroxypropan-2-yl)-2-oxo-2-(4-(pyrrolidin-1-yl)phenyl)acetamide]	< 50 nM
O=C(N[C@H](CN1CCCC1)[C@H](O)c1ccc(OC2CC2)c(Cl)c1)C(F)(F)CCc1ccc2cc(Cl)ccc2c1 [Example 328, N-((1R,2R)-1-(3-chloro-4-cyclopropoxyphenyl)-1-hydroxy-3-(pyrrolidin-1-yl)propan-2-yl)-4-(6-chloronaphthalen-2-yl)-2,2-difluorobutanamide]	< 50 nM
C=COc1ccc([C@@H](O)[C@@H](CN2CCCC2)NC(=O)C(=O)c2ccc(-c3ccc(F)cc3)cc2)cc1Cl [Example 329, N-((1R,2R)-1-(3-chloro-4-(vinyloxy)phenyl)-1-hydroxy-3-(pyrrolidin-1-yl)propan-2-yl)-2-(4′-fluoro-[1,1′-biphenyl]-4-yl)-2-oxoacetamide]	< 50 nM
CC(C)n1cc(-c2ccc(C(=O)C(=O)N[C@H](CN3CCCC3)[C@H](O)c3cc(F)c4c(c3)OCCO4)cc2)cn1 [Example 330, N-((1R,2R)-1-(8-fluoro-2,3-dihydrobenzo[b][1,4]dioxin-6-yl)-1-hydroxy-3-(pyrrolidin-1-yl)propan-2-yl)-2-(4-(1-isopropyl-1H-pyrazol-4-yl)phenyl)-2-oxoacetamide]	< 50 nM
CC(C)n1ccc2ccc(C(=O)C(=O)N[C@H](CN3CCCC3)[C@H](O)c3cc(F)c4c(c3)OCCO4)cc21 [Example 331, N-((1R,2R)-1-(8-fluoro-2,3-dihydrobenzo[b][1,4]dioxin-6-yl)-1-hydroxy-3-(pyrrolidin-1-yl)propan-2-yl)-2-(1-isopropyl-1H-indo1-6-yl)-2-oxoacetamide]	< 50 nM
CC(C)n1ccc2ccc(C(=O)C(=O)N[C@H](CN3CCCC3)[C@H](O)c3ccc(OC4CC4)c(Cl)c3)cc21 [Example 332, N-((1R,2R)-1-(3-chloro-4-cyclopropoxyphenyl)-1-hydroxy-3-(pyrrolidin-1-yl)propan-2-yl)-2-(1-isopropyl-1H-indo1-6-yl)-2-oxoacetamide]	< 50 nM
O=C(N[C@H](CN1CCCC1)[C@H](O)c1ccc(OC2CC2)cc1)C(=O)c1ccc(-c2ccc(F)cc2)cc1 [Example 333, N-((1R,2R)-1-(4-cyclopropoxyphenyl)-1-hydroxy-3-(pyrrolidin-1-yl)propan-2-yl)-2-(4′-fluoro-[1,1′-biphenyl]-4-yl)-2-oxoacetamide]	< 50 nM
Cc1nn(C(C)C)c2cc(-c3ccc(C(=O)C(=O)N[C@H](CN4CCCC4)[C@H](O)c4ccc(OC5CC5)c(Cl)c4)cc3)ccc12 [Example 334, N-((1R,2R)-1-(3-chloro-4-cyclopropoxyphenyl)-1-hydroxy-3-(pyrrolidin-1-yl)propan-2-yl)-2-(4-(1-isopropyl-3-methyl-1H-indazol-6-yl)phenyl)-2-oxoacetamide]	< 50 nM
Cc1c2ccc(-c3ccc(C(=O)C(=O)N[C@H](CN4CCCC4)[C@H](O)c4cc(F)c5c(c4)OCCO5)cc3)cc2nn1C(C)C [Example 335, N-((1R,2R)-1-(8-fluoro-2,3-dihydrobenzo[b][1,4]dioxin-6-yl)-1-hydroxy-3-(pyrrolidin-1-yl)propan-2-yl)-2-(4-(2-isopropyl-3-methyl-2H-indazol-6-yl)phenyl)-2-oxoacetamide]	< 50 nM
Cc1c2ccc(-c3ccc(C(=O)C(=O)N[C@H](CN4CCCC4)[C@H](O)c4ccc(OC5CC5)c(Cl)c4)cc3)cc2nn1C(C)C [Example 336, N-((1R,2R)-1-(3-chloro-4-cyclopropoxyphenyl)-1-hydroxy-3-(pyrrolidin-1-yl)propan-2-yl)-2-(4-(2-isopropyl-3-methyl-2H-indazol-6-yl)phenyl)-2-oxoacetamide]	< 50 nM
Cc1nn(C(C)C)c2cc(-c3ccc(C(=O)C(=O)N[C@H](CN4CCCC4)[C@H](O)c4cc(F)c5c(c4)OCCO5)cc3)ccc12 [Example 337, N-((1R,2R)-1-(8-fluoro-2,3-dihydrobenzo[b][1,4]dioxin-6-yl)-1-hydroxy-3-(pyrrolidin-1-yl)propan-2-yl)-2-(4-(1-isopropyl-3-methyl-1H-indazol-6-yl)phenyl)-2-oxoacetamide]	< 50 nM
O=C(N[C@H](CN1CCC1)[C@H](O)c1ccc(OC2CC2)c(Cl)c1)C(=O)c1cc2ccc(Cl)cc2s1 [Example 338, N-((1R,2R)-3-(azetidin-1-yl)-1-(3-chloro-4-cyclopropoxyphenyl)-1-hydroxypropan-2-yl)-2-(6-chlorobenzo[b]thiophen-2-yl)-2-oxoacetamide]	< 50 nM
CC(C)c1ccc(-c2ccc(C(=O)C(=O)N[C@H](CN3CCCC3)[C@H](O)c3ccc(OC4CC4)c(Cl)c3)cc2)cc1 [Example 339, N-((1R,2R)-1-(3-chloro-4-cyclopropoxyphenyl)-1-hydroxy-3-(pyrrolidin-1-yl)propan-2-yl)-2-(4′-isopropyl-[1,1′-biphenyl]-4-yl)-2-oxoacetamide]	< 50 nM
Cc1nn(C)c2cc(-c3ccc(C(=O)C(=O)N[C@H](CN4CCCC4)[C@H](O)c4ccc(OC5CC5)c(Cl)c4)cc3)ccc12 [Example 340, N-((1R,2R)-1-(3-chloro-4-cyclopropoxyphenyl)-1-hydroxy-3-(pyrrolidin-1-yl)propan-2-yl)-2-(4-(1,3-dimethyl-1H-indazol-6-yl)phenyl)-2-oxoacetamide]	< 50 nM
Cc1nn(C)c2cc(-c3ccc(C(=O)C(=O)N[C@H](CN4CCCC4)[C@H](O)c4cc(F)c5c(c4)OCCO5)cc3)ccc12 [Example 341, 2-(4-(1,3-dimethyl-1H-indazol-6-yl)phenyl)-N-((1R,2R)-1-(8-fluoro-2,3-dihydrobenzo[b][1,4]dioxin-6-yl)-1-hydroxy-3-(pyrrolidin-1-yl)propan-2-yl)-2-oxoacetamide]	< 50 nM
Cc1c2ccc(-c3ccc(C(=O)C(=O)N[C@H](CN4CCCC4)[C@H](O)c4cc(F)c5c(c4)OCCO5)cc3)cc2nn1C [Example 342, 2-(4-(2,3-dimethyl-2H-indazol-6-yl)phenyl)-N-((1R,2R)-1-(8-fluoro-2,3-dihydrobenzo[b][1,4]dioxin-6-yl)-1-hydroxy-3-(pyrrolidin-1-yl)propan-2-yl)-2-oxoacetamide]	< 50 nM
O=C(N[C@H](CN1CCCC1)[C@H](O)c1ccc(OC2CC2)c(Cl)c1)C(=O)c1ccc(N2CCCC2)cc1 [Example 343, N-((1R,2R)-1-(3-chloro-4-cyclopropoxyphenyl)-1-hydroxy-3-(pyrrolidin-1-yl)propan-2-yl)-2-oxo-2-(4-(pyrrolidin-1-yl)phenyl)acetamide]	< 50 nM
COc1cc([C@@H](O)[C@@H](CN2CCCC2)NC(=O)C(=O)c2ccc(-c3ccc(F)cc3)cc2)cc(F)c1OC(C)C [Example 344, N-((1R,2R)-1-(3-fluoro-4-isopropoxy-5-methoxyphenyl)-1-hydroxy-3-(pyrrolidin-1-yl)propan-2-yl)-2-(4′-fluoro-[1,1′-biphenyl]-4-yl)-2-oxoacetamide]	< 50 nM
CC(C)n1ccc2ccc(-c3ccc(C(=O)C(=O)N[C@H](CN4CCCC4)[C@H](O)c4cc(F)c5c(c4)OCCO5)cc3)cc21 [Example 345, N-((1R,2R)-1-(8-fluoro-2,3-dihydrobenzo[b][1,4]dioxin-6-yl)-1-hydroxy-3-(pyrrolidin-1-yl)propan-2-yl)-2-(4-(1-isopropyl-1H-indol-6-yl)phenyl)-2-oxoacetamide]	< 50 nM
